From patent publication US7371536B2, “Methods for transporting vitamin C” (priority 1999, dated 2008)

Tests used:
Assay type in all cases: cell-based
rat SVCT1 [1] = biological target: T1, rat SVCT1 (Rattus norvegicus, UniProt Q9WTW7); test: Two-microelectrode voltage-clamp of Xenopus oocytes expressing rat SVCT1; settings: for evoked current / substrate selectivity (in words): oocytes expressing SVCT1
T1 construct: expressed in transfected cells; host or cells: Xenopus laevis oocytes injected with cRNA
Method: Rat SVCT1 and SVCT2 clones were obtained by isolating SVCT1 cDNA from rat kidney by expression cloning as described in Hediger et al., Methods Enzymol. 296:17-52 (1998). The SVCT2 cDNA was subsequently isolated by PCR-based homology screening of a rat brain cDNA library. […] Radiotracer and voltage-clamp experiments were performed (at 22° C.) in Xenopus oocytes two to seven days after injection with ˜25 ng of SVCT1 or SVCT2 cRNA synthesized in vitro. Radiotracer uptake was determined by incubating 6-10 oocytes for 30 or 60 min in standard 100 mM Na^+ or Na^+-free media with 10-600 μM L-[^14C]ascorbic acid.
(§1) Functional characterization of SVCT1 and SVCT2 in Xenopus oocytes—Oocytes were isolated from Xenopus laevis (under 2-aminoethylbenzoate anaesthesia), treated with collagenase A and stored at 18° C. in modified Barths' medium. Oocytes were injected with ≈25 ng of SVCT1 or SVCT2 cRNA synthesized in vitro, or water only (control), and incubated 2-7 days before radiotracer or voltage-clamp experiments were performed. Standard Na^+ uptake medium comprised 100 mM NaCl, 2 mM KCl, 1 mM CaCl2, 1 mM MgCl2, 10 mM HEPES (pH 7.5 with Tris base). For Na^+-free or low-Na^+ media, NaCl was replaced by equimolar choline chloride; likewise, Cl^− was replaced by gluconate for Cl^−-free medium. For pH-sensitivity experiments, Na^+ media were buffered at pH 5.5-8.0 using 0-5 mM MES, 0-5 mM HEPES and 0-5 mM Tris base. L-Ascorbic acid-containing solutions were freshly-prepared (without dithiothreitol) and used immediately.
(§2) Radiotracer uptake was determined by incubating 6-10 oocytes for 30 or 60 min in standard Na^+ or Na^+-free media (at 22° C.) with 10-600 μM L-[1-^14C]ascorbic acid (final specific activity 0.3 GBq/mmol). Oocytes were solubilized with 10% SDS and [^14C]-content was measured by liquid scintillation counting. A two-microelectrode voltage-clamp was used to measure currents in control oocytes and oocytes injected with rat SVCT1 or rat SVCT2 cRNA. Microelectrodes (resistance 0.5-5 MΩ) were filled with 3 M KCl. Oocytes were superfused at 22° C. in standard Na^+ medium and clamped at a holding potential (Vh) of −50 mV. For continuous current monitoring at Vh=−50 mV, the current was low-pass filtered at 20 Hz (sampling at 1 Hz). Additionally, step-changes in membrane potential (Vm) were applied (from +50 mV to −150 mV in 20-mV increments), each for a duration of 100 ms, before and after the addition of substrate; current was low-pass filtered at 500 Hz and digitized at 5 kHz. Test solutions were always washed out with substrate-free medium (100 mM choline chloride) at pH 7.5 for several minutes. Steady-state data (obtained by averaging the points over the final 16.7 ms at each Vm step when step-changes were applied) were fitted to equation (1) below, for which I is the evoked current (i.e., the difference in steady-state current measured in the presence and absence of substrate), Imax the derived current maximum, S the concentration of substrate S (Na^+ or L-ascorbic acid),
(§3) [formula] the substrate concentration at which current was half-maximal, and nH the Hill coefficient for S. (For radiotracer experiments, I was replaced with velocity V and Imax replaced with the derived maximal velocity, Vmax.)

rat SVCT2 = biological target: T2, rat SVCT2 (Rattus norvegicus, UniProt Q9WTW8); test: L-[14C]ascorbic acid radiotracer uptake in Xenopus oocytes expressing rat SVCT2
T2 construct: expressed in transfected cells; host or cells: Xenopus laevis oocytes injected with cRNA (vector pTLN2)
Method: (§4) Rat SVCT1 and SVCT2 clones were obtained by isolating SVCT1 cDNA from rat kidney by expression cloning as described in Hediger et al., Methods Enzymol. 296:17-52 (1998). The SVCT2 cDNA was subsequently isolated by PCR-based homology screening of a rat brain cDNA library. A 2.5-kb rabbit cDNA with 96% identity to residues 96-505 of the rat SVCT2 was obtained by RT-PCR. Radiotracer and voltage-clamp experiments were performed (at 22° C.) in Xenopus oocytes two to seven days after injection with ˜25 ng of SVCT1 or SVCT2 cRNA synthesized in vitro. Radiotracer uptake was determined by incubating 6-10 oocytes for 30 or 60 min in standard 100 mM Na^+ or Na^+-free media with 10-600 μM L-[^14C]ascorbic acid.
as §1
as §2, with “Additionally, step-changes in membrane potential (Vm) were applied (from +50 mV to −150 mV in 20-mV increments), each for a duration of 100 ms, before and after the addition of substrate; current was low-pass filtered at 500 Hz and digitized at 5 kHz. Test solutions were always washed out with substrate-free medium (100 mM choline chloride) at pH 7.5 for several minutes.” left out, “acid), […]” for “acid),”

rat SVCT1 [2] = biological target: T1, rat SVCT1; test: L-[14C]ascorbic acid radiotracer uptake in Xenopus oocytes expressing rat SVCT1
Method: as §4, §1, §2, §3

human SVCT1 [3] = biological target: T3, human SVCT1 (Homo sapiens, UniProt Q9UHI7); test: L-[14C]ascorbic acid radiotracer uptake in Xenopus oocytes expressing human SVCT1; settings: data not shown
T3 construct: expressed in transfected cells; host or cells: Xenopus laevis oocytes injected with cRNA (vector pTLN2)
Method: Functional characterization in Xenopus oocytes—SVCT1 and SVCT2 cDNAs were subcloned into the pTLN2 vector (to improve functional expression in oocytes) and used for cRNA synthesis in vitro using the MEGAscript kit and T7 RNA polymerase (from Ambion). Oocytes were isolated from Xenopus laevis, treated with collagenase A and maintained at 18° C. in modified Barths' medium. Oocytes were injected with 15 ng SVCT1 or SVCT2 cRNA or water only. The radiotracer uptake and voltage-clamp experiments described below were conducted 2-5 days post-injection in standard medium of composition 100 mM NaCl, 2 mM KCl, 1 mM CaCl2, 1 mM MgCl2, and 10 mM HEPES (buffered to pH 7.5 with Tris base). For low-Na^+ or Na^+-free media, NaCl was replaced with choline chloride. For pH-dependence experiments, Na^+ media were buffered to between pH 5.5 and pH 8.0 using 0-5 mM MES, 0-5 mM HEPES and 0-5 mM Tris base. L-Ascorbic acid-containing solutions were always freshly prepared and used immediately. […] Oocytes were solubilized with 10% SDS and carbon-14 content measured by liquid scintillation counting. A two-microelectrode voltage-clamp was used to measure currents associated with SVCT1 expressed in oocytes. Oocytes were superfused at 22° C. in standard Na^+ medium and clamped at −50 mV. Current was continuously monitored by sampling at 1 Hz. Test solutions were always washed out with substrate-free, Na^+-free medium at pH 7.5 for several minutes. Once again, saturation kinetics data were fit to a modified Hill equation in which I and Imax were replaced by uptake V and maximal velocity Vmax for analysis of radiotracer uptake data.

human SVCT1 [4] = biological target: T3, human SVCT1; test: Two-microelectrode voltage-clamp of Xenopus oocytes expressing human SVCT1
Method: Functional characterization in Xenopus oocytes—SVCT1 and SVCT2 cDNAs were subcloned into the pTLN2 vector (to improve functional expression in oocytes) and used for cRNA synthesis in vitro using the MEGAscript kit and T7 RNA polymerase (from Ambion). Oocytes were isolated from Xenopus laevis, treated with collagenase A and maintained at 18° C. in modified Barths' medium. Oocytes were injected with 15 ng SVCT1 or SVCT2 cRNA or water only. The radiotracer uptake and voltage-clamp experiments described below were conducted 2-5 days post-injection in standard medium of composition 100 mM NaCl, 2 mM KCl, 1 mM CaCl2, 1 mM MgCl2, and 10 mM HEPES (buffered to pH 7.5 with Tris base). For low-Na^+ or Na^+-free media, NaCl was replaced with choline chloride. For pH-dependence experiments, Na^+ media were buffered to between pH 5.5 and pH 8.0 using 0-5 mM MES, 0-5 mM HEPES and 0-5 mM Tris base. L-Ascorbic acid-containing solutions were always freshly prepared and used immediately. Radiotracer uptake was determined by incubating 8-12 oocytes for 30 min (within the time-course of linear uptake) in standard Na^+, low-Na^+ or Na^+-free media with 10-500 μM L-[1-^14C]ascorbic acid (final specific activity ≈0.3 GBq/mmol). Oocytes were solubilized with 10% SDS and carbon-14 content measured by liquid scintillation counting. A two-microelectrode voltage-clamp was used to measure currents associated with SVCT1 expressed in oocytes. Oocytes were superfused at 22° C. in standard Na^+ medium and clamped at −50 mV. Current was continuously monitored by sampling at 1 Hz. Test solutions were always washed out with substrate-free, Na^+-free medium at pH 7.5 for several minutes. Once again, saturation kinetics data were fit to a modified Hill equation in which I and Imax were replaced by uptake V and maximal velocity Vmax for analysis of radiotracer uptake data.

T3 sequence (Q9UHI7 whole entry): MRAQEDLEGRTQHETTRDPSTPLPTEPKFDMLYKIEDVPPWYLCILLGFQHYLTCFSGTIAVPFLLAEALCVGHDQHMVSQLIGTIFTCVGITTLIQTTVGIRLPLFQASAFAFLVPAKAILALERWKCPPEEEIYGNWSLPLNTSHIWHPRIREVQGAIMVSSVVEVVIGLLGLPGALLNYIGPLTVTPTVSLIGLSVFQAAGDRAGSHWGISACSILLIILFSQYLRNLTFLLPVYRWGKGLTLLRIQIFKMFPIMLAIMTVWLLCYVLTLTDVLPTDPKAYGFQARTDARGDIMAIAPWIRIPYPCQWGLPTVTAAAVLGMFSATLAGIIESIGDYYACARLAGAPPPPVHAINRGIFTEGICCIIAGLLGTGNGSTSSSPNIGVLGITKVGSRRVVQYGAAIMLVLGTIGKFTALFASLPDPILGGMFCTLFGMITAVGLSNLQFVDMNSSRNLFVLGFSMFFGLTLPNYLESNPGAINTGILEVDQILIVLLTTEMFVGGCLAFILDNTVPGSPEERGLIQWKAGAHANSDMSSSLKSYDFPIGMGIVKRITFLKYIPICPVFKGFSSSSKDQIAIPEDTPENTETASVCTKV
T1 sequence (Q9WTW7 whole entry): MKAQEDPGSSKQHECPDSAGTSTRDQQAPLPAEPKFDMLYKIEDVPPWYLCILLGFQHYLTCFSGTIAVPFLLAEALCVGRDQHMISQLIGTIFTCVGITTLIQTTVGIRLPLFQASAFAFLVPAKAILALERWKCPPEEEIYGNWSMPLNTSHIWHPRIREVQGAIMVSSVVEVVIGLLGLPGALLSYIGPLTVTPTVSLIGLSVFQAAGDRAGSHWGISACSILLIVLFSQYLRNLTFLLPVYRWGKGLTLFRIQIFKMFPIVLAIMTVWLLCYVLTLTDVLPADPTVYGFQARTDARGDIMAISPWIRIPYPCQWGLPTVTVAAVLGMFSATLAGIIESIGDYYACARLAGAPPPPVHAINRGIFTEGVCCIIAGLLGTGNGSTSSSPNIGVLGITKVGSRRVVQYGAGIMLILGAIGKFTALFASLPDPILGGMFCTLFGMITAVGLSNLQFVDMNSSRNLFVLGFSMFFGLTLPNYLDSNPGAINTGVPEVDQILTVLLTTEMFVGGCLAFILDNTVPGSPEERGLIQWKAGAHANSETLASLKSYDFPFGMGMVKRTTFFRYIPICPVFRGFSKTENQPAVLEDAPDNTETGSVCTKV
T2 sequence (Q9WTW8 whole entry): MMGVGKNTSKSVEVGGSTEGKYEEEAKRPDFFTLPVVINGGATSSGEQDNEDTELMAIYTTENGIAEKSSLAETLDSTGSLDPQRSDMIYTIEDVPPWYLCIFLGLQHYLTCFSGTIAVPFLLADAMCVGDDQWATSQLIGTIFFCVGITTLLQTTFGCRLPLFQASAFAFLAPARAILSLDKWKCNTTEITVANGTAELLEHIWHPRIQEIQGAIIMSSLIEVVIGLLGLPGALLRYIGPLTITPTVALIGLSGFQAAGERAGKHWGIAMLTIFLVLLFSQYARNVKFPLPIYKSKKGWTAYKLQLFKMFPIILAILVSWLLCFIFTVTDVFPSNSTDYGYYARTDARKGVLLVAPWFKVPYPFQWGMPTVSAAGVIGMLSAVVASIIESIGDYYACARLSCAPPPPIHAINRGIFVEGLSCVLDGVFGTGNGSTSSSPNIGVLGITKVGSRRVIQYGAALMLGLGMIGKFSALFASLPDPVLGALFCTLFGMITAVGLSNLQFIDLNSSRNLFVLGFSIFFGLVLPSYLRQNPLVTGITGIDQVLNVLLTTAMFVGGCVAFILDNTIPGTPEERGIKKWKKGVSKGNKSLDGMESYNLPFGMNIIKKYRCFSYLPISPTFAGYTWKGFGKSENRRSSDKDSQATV

Compound	evoked current / substrate selectivity (in words) (rat SVCT1 [1])	inhibition of SVCT2-mediated L-[14C]ascorbic acid uptake (in words) (rat SVCT2)	inhibition of SVCT1-mediated L-[14C]ascorbic acid uptake (in words) (rat SVCT1 [2])	inhibition of L-[14C]ascorbic acid uptake (in words) (human SVCT1 [3])	other results
O=c1[nH]c(=O)c2[nH]cnc2[nH]1 [xanthine]	tiny outward currents	modest inhibition	modest inhibition		
O=C[C@H](O)[C@@H](O)[C@H](O)[C@H](O)CO [D-glucose]	excluded			not significantly inhibited	transport / substrate selectivity (in words) (human SVCT1 [4]; 500 μM, −50 mV): excluded
O=C(CCc1ccc(O)cc1)c1c(O)cc(O)cc1O [phloretin]	sizable outward current	inhibited	inhibited		inhibition of L-[14C]ascorbic acid uptake (human SVCT1 [3]): ≈ 80%; block of the inward current evoked by L-ascorbic acid (rat SVCT1 [1]; FIG. 4H): blocked; Ki (rat SVCT1 [1]; uniport mode, absence of L-ascorbic acid, read-out: apparent Ki, inhibition of the Na^+ leak current): ~100 µM; mode of inhibition of L-[14C]ascorbic acid uptake (rat SVCT1 [2]; Dixon analysis): non-competitive inhibitor; Ki (rat SVCT1 [2]; FIG. 4I, read-out: Ki, Dixon analysis of L-[14C]ascorbic acid uptake): ~65 µM; inhibition of the L-ascorbic acid-evoked current (in words) (human SVCT1 [4]; FIG. 8A, 100 μM phloretin): potent inhibitor; block of the Na^+ leak current (in words) (human SVCT1 [4]; absence of L-ascorbic acid or other substrate): blocked
O=C(CCc1ccc(O)cc1)c1c(O)cc(O)cc1O[C@@H]1O[C@H](CO)[C@@H](O)[C@H](O)[C@H]1O [phlorizin]	tiny outward currents	modest inhibition	modest inhibition		
O=C1O[C@H]([C@H](O)CO)C(O)=C1O [D-isoascorbic acid]					evoked current relative to that for L-ascorbic acid (rat SVCT1 [1]; substrate selectivity, FIG. 4F): ≈ 30%; evoked current relative to that of L-ascorbic acid (human SVCT1 [4]; each at 500 μM, −50 mV): about 15%; K0.5 based on evoked currents (human SVCT1 [4]; −50 mV): 2.7 ± 1.2 mM
CC(=O)Oc1ccccc1C(=O)O [aspirin, acetyl-salicylic acid]	tiny outward currents	modest inhibition	modest inhibition	not significantly inhibited	
